# Results reported in US8480638B2, “Intraocular iontophoretic device and associated methods” (Aciont, Inc., priority 2007, dated 2013).
# Columns and labels:
# [1] = MRI distribution of Mn^++ in the rabbit eye after iontophoresis with a handheld ocular iontophoretic device; type: in vivo; conditions: finger pressure, hydrogel 1.0M Mn^++, 2 mA for 20 minutes, return electrode on ear, 3 Tesla MRI, FIG. 7
# Source text: A handheld ocular iontophoretic device is constructed from a plastic tube, wherein one end is shaped to conform to the eye of a rabbit. An electroplated AgAgCl electrode is positioned in one end of the plastic tube and a hydrogel is inserted into the tube so that one side of the hydrogel contacts the electrode, while the opposite side is configured to contact the eye. The hydrogel has been previously loaded with 1.0M Mn^++. The iontophoretic device is coupled to a power source and placed against the surface of an eye of a rabbit, partially within the cul-de-sac in a dorsal location. A return electrode is attached to the ear of the rabbit, and finger pressure is used to seal the device against the eye. 2 mA of current is applied to the iontophoretic device for 20 minutes to deliver the Mn^++ from the hydrogel and into the eye.
# [2] = MRI distribution of Mn^++ in the rabbit eye after iontophoresis with an iontophoretic scleral lens device with suction; type: in vivo; conditions: suction applied, hydrogel 1.0M Mn^++, 3 mA for 20 minutes, 3 Tesla MRI, FIG. 8
# Source text: An iontophoretic scleral lens device is configured to conform to the eye of a rabbit. An electroplated AgAgCl electrode coupled to a 1.0M Mn^++ filled hydrogel is located within a reservoir structure along the contact surface of the scleral lens. The iontophoretic device is coupled to a power source and positioned on an eye of a rabbit, such that the reservoir is located partially within the cul-de-sac in a dorsal region of the eye. A return electrode is attached to the ear of the rabbit, and suction is applied to the scleral lens to preclude movement of the lens relative to the eye surface. 3 mA of current is applied to the scleral lens device for 20 minutes to deliver the Mn^++ from the hydrogel and into the eye. […] Diffusion from this region can be seen in the white band extending toward the posterior eye tissues.
smiles,measurement,setting,value
[Mn+2] [Mn^++],"Distribution of the Mn^++ within the eye of the rabbit (MRI, white contrast)",[1],delivered primarily to the eyelid and surrounding tissues with relatively little delivery into the eye itself
same,"Depot formation in the eye (MRI, black region along the dorsal region of the eye)",[2],formation of a depot of concentrated Mn^++
same,"Distribution of the Mn^++ within the eye of the rabbit (MRI, white contrast)",[2]; return electrode on ear,delivered primarily into the eye tissues
